Experimental findings from patent US20220056043A1, “NITROGEN-CONTAINING FUSED CYCLIC COMPOUND, PREPARATION METHOD THEREFOR AND USE THEREOF” (SICHUAN KELUN-BIOTECH BIOPHARMACEUTICAL CO., LTD., priority 2019, published 2022) are described below.

Assay [1] concerns the target T1, hTLR7 (Homo sapiens, UniProt Q9NYK1).
T1 construct: host or cells: HEK-hTLR7-NF-κB-Luciferase cells
T1 sequence (Q9NYK1 27-1049): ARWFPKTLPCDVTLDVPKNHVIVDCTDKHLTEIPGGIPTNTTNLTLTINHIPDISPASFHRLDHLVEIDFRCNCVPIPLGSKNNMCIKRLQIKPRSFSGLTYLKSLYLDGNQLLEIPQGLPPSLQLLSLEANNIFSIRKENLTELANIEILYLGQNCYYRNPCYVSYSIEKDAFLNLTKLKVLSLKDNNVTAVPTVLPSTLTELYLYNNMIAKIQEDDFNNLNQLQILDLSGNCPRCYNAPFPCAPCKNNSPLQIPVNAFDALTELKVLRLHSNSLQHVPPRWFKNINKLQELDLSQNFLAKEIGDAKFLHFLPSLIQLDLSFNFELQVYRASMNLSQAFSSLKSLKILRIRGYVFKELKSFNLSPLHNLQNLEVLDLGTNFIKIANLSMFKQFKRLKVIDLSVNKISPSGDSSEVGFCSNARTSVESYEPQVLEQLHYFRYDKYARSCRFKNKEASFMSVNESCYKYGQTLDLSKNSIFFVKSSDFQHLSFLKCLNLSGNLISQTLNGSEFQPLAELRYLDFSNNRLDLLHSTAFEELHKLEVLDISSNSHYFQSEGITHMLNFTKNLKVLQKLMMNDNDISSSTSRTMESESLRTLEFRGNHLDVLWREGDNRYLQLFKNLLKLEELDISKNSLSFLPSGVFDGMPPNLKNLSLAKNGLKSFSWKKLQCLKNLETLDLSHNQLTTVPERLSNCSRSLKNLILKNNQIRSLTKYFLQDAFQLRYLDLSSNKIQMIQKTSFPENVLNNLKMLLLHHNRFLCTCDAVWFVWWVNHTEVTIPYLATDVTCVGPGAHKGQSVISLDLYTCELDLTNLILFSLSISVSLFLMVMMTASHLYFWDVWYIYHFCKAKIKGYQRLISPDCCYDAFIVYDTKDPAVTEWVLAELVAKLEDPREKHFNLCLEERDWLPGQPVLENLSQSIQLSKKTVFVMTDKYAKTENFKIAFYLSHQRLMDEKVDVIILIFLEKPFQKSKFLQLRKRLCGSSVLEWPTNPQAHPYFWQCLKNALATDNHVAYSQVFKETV
Briefly: Agonistic effect on hTLR7, HEK-hTLR7-NF-κB-Luciferase reporter cells. The class given is cell-based. The conditions noted are these: 16 hours. In a few lines: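 HEK cells carrying human TLR7 and NF-κB-luciferase reporter, […] in DMEM with 10% FBS, exposed to compound for 16 h at 37 °C, 5% CO2; serves as specificity counterscreen to NLRP3 activity. Luminescence (RLU) after 5 min with luciferase reagent; EC50 by four-parameter variable-slope fit.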
Background: A reporter such as luciferase makes a cellular process visible.

For assay [2], the system named is THP1-defNLRP3 cells. Put plainly: Agonistic effect on the expression of IL-1β in NLRP3 deficient THP1 cells (THP1-defNLRP3) after PMA-induced differentiation (HTRF). Particulars: IL-1β level, PMA-differentiated NLRP3 deficient THP1 cells, 6 hours, highest test concentration 30 μM, read-out: hNLRP3 EC50 (μM) (THP-1defNLRP3). The class given is cell-based, human. In a few lines: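 PMA-differentiated (1 μM, 24 h) NLRP3-deficient THP1 macrophages, 1×10^5 cells/well in RPMI 1640 with 2% heat-inactivated FBS, treated with compound for 6 h at 37 °C. Supernatant IL-1β measured by HTRF. EC50 from four-parameter variable-slope fit.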
(TR-FRET usually uses a lanthanide donor and a delayed reading to cut background.)

pEC50: −log10 of the molar value. Read-outs that look alike come from different tables or passages of the source.

`Cc1noc(C)c1CNc1cc(N)nc2cc(-c3ccn[nH]3)sc12` [Compound 149, N^7-((3,5-dimethylisoxazol-4-yl)methyl)-2-(1H-pyrazol-5-yl)thieno[3,2-b]pyridine-5,7-diamine]: the negative logarithm of the EC50 (pEC50) (commonly the EC50 on a negative log10 scale, so that one unit is a factor of ten) in assay [1] was less than 4.00. Further, in assay [2] (Homo sapiens, THP-1), the half-maximal effective concentration (EC50) (as a rule, the midpoint of the concentration-response curve) was more than 30 µM.

In assay [1], `CC(C)C[C@H](CO)Nc1cc(N)nc2cc(-c3ccn[nH]3)sc12` [Compound 144, (R)-2-((5-amino-2-(1H-pyrazol-5-yl)thieno[3,2-b]pyridin-7-yl)amino)-4-methyl-1-pentanol] had a pEC50 of less than 4.00. Moreover, in assay [2] (Homo sapiens, THP-1), the concentration giving a half-maximal response (EC50) was more than 30 µM.

For the molecule `C[C@@H]1CN(CCNc2cc(N)nc3cc(-c4ccn[nH]4)sc23)C[C@@H](C)O1` [Compound 124, N^7-(2-((2R,6R)-2,6-dimethylmorpholino)ethyl)-2-(1H-pyrazol-5-yl)thieno[3,2-b]pyridine-5,7-diamine], the pEC50 in assay [1] was less than 4.00. In addition, in assay [2] (Homo sapiens, THP-1), the EC50 is more than 30 µM.

On to `COC[C@@H](C)Nc1cc(N)nc2cc(-c3ccn[nH]3)sc12` [Compound 133, (R)—N^7-(1-methoxyprop-2-yl)-2-(1H-pyrazol-5-yl)thieno[3,2-b]pyridine-5,7-diamine], for which the negative-log EC50 (pEC50) in assay [1] is less than 4.00. In addition, the EC50 in assay [2] (Homo sapiens, THP-1) is more than 30 µM.

Consider `Cc1c(-c2cc[nH]n2)sc2c(NCC(C)(C)CO)cc(N)nc12` [Compound 151], for which the pEC50 in assay [1] is less than 4.00. Further, in assay [2] (Homo sapiens, THP-1), the EC50 was more than 30 µM.

`Nc1cc(N[C@H]2CC[C@H](O)CC2)c2sc(-c3ccn[nH]3)cc2n1` [Compound 147, (1R,4R)-4-((5-amino-2-(1H-pyrazol-5-yl)thieno[3,2-b]pyridin-7-yl)amino)cyclohexanol] had a pEC50 in assay [1] of less than 4.00. In assay [2] (Homo sapiens, THP-1), the EC50 was more than 30 µM.

In assay [1], `COCCNc1cc(N)nc2c(C)c(-c3cc[nH]n3)sc12` [Compound 152] had a negative-log EC50 (pEC50) of less than 4.00. The EC50 in assay [2] (Homo sapiens, THP-1) was more than 30 µM.

With `CCC(=O)N(CC)CCNc1cc(N)nc2cc(-c3ccn[nH]3)sc12` [Compound 145, N-(2-((5-amino-2-(1H-pyrazol-5-yl)thieno[3,2-b]pyridin-7-yl)amino)ethyl)-N-ethylpropionamide], the negative-log EC50 (pEC50) in assay [1] is less than 4.00. Further, the EC50 in assay [2] (Homo sapiens, THP-1) is more than 30 µM.

Take `CCN(CCNc1cc(N)nc2cc(-c3ccn[nH]3)sc12)C(=O)C1CC1` [Compound 146, N-(2-((5-amino-2-(1H-pyrazol-5-yl)thieno[3,2-b]pyridin-7-yl)amino)ethyl)-N-ethylcyclopropyl formamide]: the negative logarithm of the EC50 (pEC50) in assay [1] is less than 4.00. Besides, the concentration for a half-maximal effect (EC50) in assay [2] (Homo sapiens, THP-1) was more than 30 µM.

In the case of `CC(C)CNc1cc(N)nc2cc(-c3ccn[nH]3)sc12` [Compound 141, N^7-isobutyl-2-(1H-pyrazol-5-yl)thieno[3,2-b]pyridin-5,7-diamine], in assay [1], the pEC50 is less than 4.00. Moreover, the concentration giving a half-maximal response (EC50) in assay [2] (Homo sapiens, THP-1) was more than 30 µM.

For `CC(C)(O)CNc1cc(N)nc2cc(-c3ccn[nH]3)sc12` [Compound 28, (1-(5-amino-2-(1H-pyrazol-5-yl)thieno[3,2-b]pyridin-7-yl)amino)-2-methyl-2-propanol], the pEC50 in assay [1] is less than 4.00. In assay [2] (Homo sapiens, THP-1), the EC50 was more than 30 µM.

As to `CCN(CCNc1cc(N)nc2cc(-c3ccn[nH]3)sc12)C(=O)Cc1cccc(C)c1` [Compound 140, N-(2-((5-amino-2-(1H-pyrazol-5-yl)thieno[3,2-b]pyridin-7-yl)amino)ethyl)-N-ethyl-2-(m-tolyl)acetamide], the pEC50 in assay [1] is less than 4.00. The concentration giving a half-maximal response (EC50) in assay [2] (Homo sapiens, THP-1) was more than 30 µM.

Turning to `CN(CCO)c1cc(N)nc2cc(-c3ccn[nH]3)sc12` [Compound 139, 2-((5-amino-2-(1H-pyrazol-5-yl)thieno[3,2-b]pyridin-7-yl)(methyl)amino)ethanol], the negative logarithm of the EC50 (pEC50) in assay [1] was less than 4.00. For the same molecule, the half-maximal effective concentration (EC50) in assay [2] (Homo sapiens, THP-1) is more than 30 µM.

`Nc1cc(NCCN2CCCC2=O)c2sc(-c3ccn[nH]3)cc2n1` [Compound 135, 1-(2-((5-amino-2-(1H-pyrazol-5-yl)thieno[3,2-b]pyridin-7-yl)amino)ethyl)pyrrolidin-2-one]: the pEC50 in assay [1] was less than 4.00. Moreover, in assay [2] (Homo sapiens, THP-1), the EC50 is more than 30 µM.

As to `CN(CCCO)c1cc(N)nc2cc(-c3ccn[nH]3)sc12` [Compound 127, 3-((5-amino-2-(1H-pyrazol-5-yl)thieno[3,2-b]pyridin-7-yl)(methyl)amino)-1-propanol], the pEC50 in assay [1] was less than 4.00. Further, the half-maximal effective concentration (EC50) in assay [2] (Homo sapiens, THP-1) was more than 30 µM.

The molecule `Nc1cc(NCC2CCC2)c2sc(-c3ccn[nH]3)cc2n1` [Compound 126, N^7-(cyclobutylmethyl)-2-(1H-pyrazol-5-yl)thieno[3,2-b]pyridine-5,7-diamine] gave a negative-log EC50 (pEC50) in assay [1] of less than 4.00. Moreover, the EC50 in assay [2] (Homo sapiens, THP-1) is more than 30 µM.

On to `C[C@@H](O)CNc1cc(N)nc2cc(-c3ccn[nH]3)sc12` [Compound 29], for which the pEC50 in assay [1] was less than 4.00. For the same molecule, the concentration giving a half-maximal response (EC50) in assay [2] (Homo sapiens, THP-1) was more than 30 µM.

In assay [1], `Nc1cc(NCC(CO)CO)c2sc(-c3ccn[nH]3)cc2n1` [Compound 136] showed a pEC50 of less than 4.00. In addition, the concentration for a half-maximal effect (EC50) in assay [2] (Homo sapiens, THP-1) is more than 30 µM.

On to `CNC(=O)CNc1cc(N)nc2cc(-c3ccn[nH]3)sc12` [Compound 137, 2-((5-amino-2-(1H-pyrazol-5-yl)thieno[3,2-b]pyridin-7-yl)amino)-N-methylacetamide], for which, in assay [1], the pEC50 was less than 4.00. In addition, the 50% effective concentration (EC50) in assay [2] (Homo sapiens, THP-1) was more than 30 µM.

Consider `Nc1cc(NCCCN2CCCC2=O)c2sc(-c3ccn[nH]3)cc2n1` [Compound 150], for which the pEC50 in assay [1] is less than 4.00. In assay [2] (Homo sapiens, THP-1), the concentration for a half-maximal effect (EC50) was more than 30 µM.

Take `C[C@@H]1CN(c2cc(N)nc3cc(-c4ccn[nH]4)sc23)C[C@@H](C)O1` [Compound 148, 7-((2R,6R)-2,6-dimethylmorpholino)-2-(1H-pyrazol-5-yl)thieno[3,2-b]pyridine-5-amine]: in assay [1], the pEC50 is less than 4.00. Also, in assay [2] (Homo sapiens, THP-1), the EC50 is more than 30 µM.

For `Nc1cc(NC2CCC(F)(F)CC2)c2sc(-c3ccn[nH]3)cc2n1` [Compound 143, N^7-(4,4-difluorocyclohexyl)-2-(1H-pyrazol-5-yl)thieno[3,2-b]pyridin-5,7-diamine], the pEC50 in assay [1] is less than 4.00. In addition, the EC50 in assay [2] (Homo sapiens, THP-1) is more than 30 µM.

In assay [1], `Nc1cc(N[C@H]2[C@@H]3CNC[C@@H]32)c2sc(-c3ccn[nH]3)cc2n1` [Compound 142, N^7-((1R,5S,6S)-3-azabicyclo[3.1.0]hex-6-yl)-2-(1H-pyrazol-5-yl)thieno[3,2-b]pyridin-5,7-diamine] had a negative-log EC50 (pEC50) of less than 4.00. Besides, in assay [2] (Homo sapiens, THP-1), the EC50 is more than 30 µM.

Molecule `C[C@]1(O)C[C@@H](Nc2cc(N)nc3cc(-c4ccn[nH]4)sc23)C1` [Compound 129, (1s,3s)-3-((5-amino-2-(1H-pyrazol-5-yl)thieno[3,2-b]pyridin-7-yl)amino)-1-methylcyclobutanol] gave a negative logarithm of the EC50 (pEC50) in assay [1] of less than 4.00. Further, in assay [2] (Homo sapiens, THP-1), the EC50 was more than 30 µM.

Consider `Nc1cc(NC(CCO)c2ccccc2)c2sc(-c3ccn[nH]3)cc2n1` (stereo not drawn) [Compound 123, 3-((5-amino-2-(1H-pyrazol-5-yl)thieno[3,2-b]pyridin-7-yl)amino)-3-phenyl-1-propanol], for which, in assay [1], the negative-log EC50 (pEC50) is less than 4.00. In addition, in assay [2] (Homo sapiens, THP-1), the EC50 is more than 30 µM.

Consider `Nc1cc(N[C@@H]2CC[C@@H](O)C2)c2sc(-c3ccn[nH]3)cc2n1` [Compound 30, (1R,3R)-3-((5-amino-2-(1H-pyrazol-5-yl)thieno[3,2-b]pyridin-7-yl)amino)cyclopentanol], for which the negative-log EC50 (pEC50) in assay [1] is less than 4.00. Also, the EC50 in assay [2] is more than 30 µM.

In assay [1], `Cc1cccnc1CNc1cc(N)nc2cc(-c3ccn[nH]3)sc12` [Compound 134, N^7-((3-methylpyridin-2-yl)methyl)-2-(1H-pyrazol-5-yl)thieno[3,2-b]pyridine-5,7-diamine] had a pEC50 of less than 4.00. Also, the 50% effective concentration (EC50) in assay [2] (Homo sapiens, THP-1) was more than 30 µM.
